In brackets after ≈: the same amount, converted by molar mass.
What was measured:
Type in all cases: functional
[1] = tested on: Haemophilus influenzae; experiment: Antibacterial activity against Haemophilus influenzae B0529 by agar microdilution method
[2] = tested on: Staphylococcus aureus; experiment: Antibacterial activity against erythromycin A-susceptible Staphylococcus aureus B0329 by agar microdilution method
[3] = tested on: Moraxella catarrhalis; experiment: Antibacterial activity against Moraxella catarrhalis B0324 by agar microdilution method
[4] = tested on: Streptococcus pneumoniae; experiment: Antibacterial activity against erythromycin A-susceptible Streptococcus pneumoniae B0541 by agar microdilution method
[5] = tested on: Staphylococcus aureus; experiment: Antibacterial activity against efflux-resistant Staphylococcus aureus B0331 by agar microdilution method
[6] = tested on: Streptococcus pneumoniae; experiment: Antibacterial activity against constitutive macrolide-lincosamide-streptogramin B-resistant Streptococcus pneumoniae B0627 by agar microdilution method
[7] = tested on: Streptococcus pyogenes; experiment: Antibacterial activity against inducible macrolide-lincosamide-streptogramin B-resistant Streptococcus pyogenes B0543 by agar microdilution method
[8] = tested on: Staphylococcus aureus; experiment: Antibacterial activity against inducible macrolide-lincosamide-streptogramin B-resistant Staphylococcus aureus B0538 by agar microdilution method
[9] = tested on: Streptococcus pyogenes; experiment: Antibacterial activity against efflux-resistant Streptococcus pyogenes B0545 by agar microdilution method
[10] = tested on: Streptococcus pyogenes; experiment: Antibacterial activity against constitutive macrolide-lincosamide-streptogramin B-resistant Streptococcus pyogenes B0544 by agar microdilution method
[11] = tested on: Staphylococcus aureus; experiment: Antibacterial activity against constitutive macrolide-lincosamide-streptogramin B-resistant Staphylococcus aureus B0330 by agar microdilution method
[12] = tested on: Streptococcus pyogenes; experiment: Antibacterial activity against erythromycin A-susceptible Streptococcus pyogenes B0542 by agar microdilution method
[13] = tested on: Streptococcus pneumoniae; experiment: Antibacterial activity against efflux-resistant Streptococcus pneumoniae B0326 by agar microdilution method

Structure (SMILES)	MIC [1] [mg/L]	MIC [2] [mg/L]	MIC [3] [mg/L]	MIC [4] [mg/L]	MIC [5] [mg/L]	MIC [6] [mg/L]	MIC [7] [mg/L]	MIC [8] [mg/L]	MIC [9] [mg/L]	MIC [10] [mg/L]	MIC [11] [mg/L]	MIC [12] [mg/L]	MIC [13] [mg/L]
CC[C@H]1OC(=O)[C@H](C)C(=O)[C@H](C)[C@@H](O[C@@H]2O[C@H](C)C[C@H](N(C)C)[C@H]2O)[C@](C)(OC[C@H](O)CN2CCN(c3ccc4c(c3F)c(=O)c(C(=O)O)cn4C3CC3)CC2)C[C@@H](C)NC(=O)[C@H](C)[C@H](O)[C@@]1(C)O	0.25 (≈ 0.256 µM)	≤ 0.125	0.5 (≈ 0.512 µM)	≤ 0.125	0.5 (≈ 0.512 µM)	0.5 (≈ 0.512 µM)	0.5 (≈ 0.512 µM)	0.25 (≈ 0.256 µM)	0.5 (≈ 0.512 µM)	4 (≈ 4.1 µM)	8 (≈ 8.2 µM)	≤ 0.125	0.25 (≈ 0.256 µM)
CC[C@H]1OC(=O)[C@H](C)C(=O)[C@H](C)[C@@H](O[C@@H]2O[C@H](C)C[C@H](N(C)C)[C@H]2O)[C@](C)(OCC(O)CN2CCN(c3ccc4c(c3)c(=O)c(C(=O)O)cn4C3CC3)CC2)C[C@@H](C)NC(=O)[C@H](C)[C@H](O)[C@@]1(C)O (stereo not given in full)	2 (≈ 2.09 µM)	0.25 (≈ 0.261 µM)	1 (≈ 1.04 µM)	≤ 0.125	2 (≈ 2.09 µM)	1 (≈ 1.04 µM)	0.25 (≈ 0.261 µM)	0.25 (≈ 0.261 µM)	2 (≈ 2.09 µM)	4 (≈ 4.17 µM)	> 64	≤ 0.125	0.5 (≈ 0.522 µM)
CC[C@H]1OC(=O)[C@H](C)C(=O)[C@H](C)[C@@H](O[C@@H]2O[C@H](C)C[C@H](N(C)C)[C@H]2O)[C@](C)(OCC(O)CNCCNc2cc3c(=O)c(C(=O)O)cn(C4CC4)c3cc2Cl)C[C@@H](C)NC(=O)[C@H](C)[C@H](O)[C@@]1(C)O (stereo not given in full)	8 (≈ 8.28 µM)	1 (≈ 1.03 µM)	4 (≈ 4.14 µM)	≤ 0.125	0.5 (≈ 0.517 µM)	4 (≈ 4.14 µM)	4 (≈ 4.14 µM)	2 (≈ 2.07 µM)	4 (≈ 4.14 µM)	32 (≈ 33.1 µM)	> 64	≤ 0.125	1 (≈ 1.03 µM)
CC[C@H]1OC(=O)[C@H](C)C(=O)[C@H](C)[C@@H](O[C@@H]2O[C@H](C)C[C@H](N(C)C)[C@H]2O)[C@](C)(OCC(O)CNCCNc2ccc3c(c2F)c(=O)c(C(=O)O)cn3C2CC2)C[C@@H](C)NC(=O)[C@H](C)[C@H](O)[C@@]1(C)O (stereo not given in full)	2 (≈ 2.11 µM)	1 (≈ 1.05 µM)	2 (≈ 2.11 µM)	≤ 0.125	4 (≈ 4.21 µM)	2 (≈ 2.11 µM)	1 (≈ 1.05 µM)	1 (≈ 1.05 µM)	16 (≈ 16.8 µM)	8 (≈ 8.42 µM)	> 64	≤ 0.125	2 (≈ 2.11 µM)
CC[C@H]1OC(=O)[C@H](C)C(=O)[C@H](C)[C@@H](O[C@@H]2O[C@H](C)C[C@H](N(C)C)[C@H]2O)[C@](C)(OCC(O)CN2CCN(c3ccc4c(c3F)c(=O)c(C(=O)OC)cn4C3CC3)CC2)C[C@@H](C)NC(=O)[C@H](C)[C@H](O)[C@@]1(C)O (stereo not given in full)	4 (≈ 4.04 µM)	4 (≈ 4.04 µM)	0.5 (≈ 0.505 µM)	0.125 (≈ 0.126 µM)	32 (≈ 32.3 µM)	> 64	> 64	> 64	16 (≈ 16.2 µM)	> 64	> 64	0.125 (≈ 0.126 µM)	0.25 (≈ 0.252 µM)
C=CCO[C@]1(C)C[C@@H](C)C(=O)N[C@H](C)[C@H](O)[C@@](C)(O)[C@@H](CC)OC(=O)[C@H](C)C(=O)[C@H](C)[C@H]1O[C@@H]1O[C@H](C)C[C@H](N(C)C)[C@H]1O [3-O-DESCLADINOSYL-3-OXO-6-O-ALLYL-9A-AZA-9A-HOMOERYTHROMYCIN A]	> 64	> 64	16 (≈ 25.4 µM)	> 64	> 64	> 64	> 64	> 64	> 64	> 64	> 64	> 64	> 64
C=CCO[C@@]1(C)[C@@H](CC)OC(=O)[C@H](C)C(=O)[C@H](C)[C@@H](O[C@@H]2O[C@H](C)C[C@H](N(C)C)[C@H]2O)[C@](C)(OCC=C)C[C@@H](C)C(=O)N[C@H](C)[C@@H]1O [3-O-DESCLADINOSYL-6,12-DI-O-ALLYL-3-OXO-9A-AZA-9A-HOMOERYTHROMYCIN A]	16 (≈ 23.9 µM)	8 (≈ 12 µM)	≤ 0.125	2 (≈ 2.99 µM)	16 (≈ 23.9 µM)	> 64	32 (≈ 47.8 µM)	8 (≈ 12 µM)	8 (≈ 12 µM)	> 64	> 64	2 (≈ 2.99 µM)	4 (≈ 5.98 µM)
CC[C@H]1OC(=O)[C@H](C)[C@@H](O[C@H]2C[C@@](C)(OC)[C@@H](O)[C@H](C)O2)[C@H](C)[C@@H](O[C@@H]2O[C@H](C)C[C@H](N(C)C)[C@H]2O)[C@](C)(O)C[C@@H](C)CN(C)[C@H](C)[C@@H](O)[C@]1(C)O [AZITHROMYCIN]	1 (≈ 1.34 µM)	1 (≈ 1.34 µM)	0.25 (≈ 0.334 µM)	≤ 0.125	> 64	> 64	8 (≈ 10.7 µM)	> 64	1 (≈ 1.34 µM)	> 64	> 64	≤ 0.125	4 (≈ 5.34 µM)
CC[C@H]1OC(=O)[C@H](C)C(=O)[C@H](C)[C@@H](O[C@@H]2O[C@H](C)C[C@H](N(C)C)[C@H]2O)[C@](C)(OCC=Cc2cnc3ccccc3c2)C[C@@H](C)C(=O)[C@H](C)[C@H]2NC(=O)O[C@@]21C [CETHROMYCIN]	2 (≈ 2.61 µM)	≤ 0.06	≤ 0.125	0.06 (≈ 0.0783 µM)	0.25 (≈ 0.326 µM)	≤ 0.125	≤ 0.06	0.25 (≈ 0.326 µM)	≤ 0.125	1 (≈ 1.31 µM)	> 64	≤ 0.06	≤ 0.06
CC[C@H]1OC(=O)[C@H](C)C(=O)[C@H](C)[C@@H](O[C@@H]2O[C@H](C)C[C@H](N(C)C)[C@H]2O)[C@](C)(OC)C[C@@H](C)C(=O)[C@H](C)[C@H]2N(CCCCn3cnc(-c4cccnc4)c3)C(=O)O[C@]12C [TELITHROMYCIN]	2 (≈ 2.46 µM)	≤ 0.125	≤ 0.125	0.06 (≈ 0.0739 µM)	0.25 (≈ 0.308 µM)	≤ 0.125	≤ 0.06	0.5 (≈ 0.616 µM)	0.25 (≈ 0.308 µM)	4 (≈ 4.93 µM)	> 64	≤ 0.06	0.5 (≈ 0.616 µM)

— ChEMBL document CHEMBL1287771, “Novel hybrids of 15-membered 8a- and 9a-azahomoerythromycin A ketolides and quinolones as potent antibacterials” (2010)
